Laboratory results taken from PubChem BioAssay AID330 (DTP/NCI, 2004).
Several values for one entry are separate records, joined by “and”; a condition that tells them apart may be missing. Equal entries are not always repeated. Inconclusive results and toxic doses are left out. The calls were made as follows: active = survival T/C of 150% or more; inactive = T/C below 125% in these data.

System: P388 leukemia ip, CD2F1 mice, survival T/C
Assay: NCI In Vivo Anticancer Drug Screen. Data for tumor model P388 Leukemia (intraperitoneal) in CD2F1 (CDF1) mice
Conditions: endpoint: median survival time, higher = longer survival
Method in brief: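 Mice carrying the transplanted tumor received test compound or vehicle. Survival was recorded in each group, and the value is the treated-group measurement divided by that of the vehicle-treated control group.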

Measured: T/C

COc1cc2cc(c1Cl)N(C)C(=O)C[C@H](OC(=O)[C@H](C)N(C)C(C)=O)[C@]1(C)O[C@H]1[C@H](C)[C@@H]1C[C@@](O)(NC(=O)O1)[C@H](OC)C=C/C=C(\C)C2
inactive: dose: 0.01 mg/kg/injection, schedule: Q01DX005 (iv), vehicle: saline 117 % of control | dose: 0.03 mg/kg/injection, schedule: Q01DX005 (iv), vehicle: saline 107 % of control | dose: 0.05 mg/kg/injection, schedule: Q01DX005 (iv), vehicle: saline 104 % of control | dose: 0.1 mg/kg/injection, schedule: Q01DX005 (iv), vehicle: saline 107 % of control | dose: 0.16 mg/kg/injection, schedule: Q04DX003 (ip), vehicle: saline 123 % of control | dose: 0.1 micrograms/kg/injection, schedule: Q01DX009 (ip), vehicle: saline 100 % of control | dose: 0.3 micrograms/kg/injection, schedule: Q03HX016 (ip), vehicle: other 122 % of control | dose: 0.4 micrograms/kg/injection, schedule: Q01DX009 (ip), vehicle: saline 112 % of control | dose: 0.5 micrograms/kg/injection, schedule: Q01DX009 (oral), vehicle: other 100 % of control | dose: 0.5 micrograms/kg/injection, schedule: Q01DX009 (sc), vehicle: other 100 % of control | dose: 0.5 micrograms/kg/injection, schedule: Q03HX008 (ip), vehicle: other 122 % of control | dose: 0.8 micrograms/kg/injection, schedule: Q01DX009 (ip), vehicle: saline 120 % of control | dose: 1.0 micrograms/kg/injection, schedule: Q01DX001 (ip), vehicle: other 109 % of control | dose: 1.0 micrograms/kg/injection, schedule: Q01DX009 (ip), vehicle: saline + alcohol 111 % of control | dose: 1.0 micrograms/kg/injection, schedule: Q01DX009 (oral), vehicle: other 100 % of control | dose: 1.0 micrograms/kg/injection, schedule: Q01DX009 (sc), vehicle: other 100 % of control | dose: 1.0 micrograms/kg/injection, schedule: Q08DX002 (ip), vehicle: other 109 % of control | dose: 2.0 micrograms/kg/injection, schedule: Q01DX001 (oral), vehicle: other 100 % of control | dose: 2.0 micrograms/kg/injection, schedule: Q01DX001 (sc), vehicle: other 100 % of control | dose: 2.0 micrograms/kg/injection, schedule: Q01DX009 (ip), vehicle: water 117 % of control | dose: 2.0 micrograms/kg/injection, schedule: Q01DX009 (sc), vehicle: other 100 % of control | dose: 4.0 micrograms/kg/injection, schedule: Q01DX001 (oral), vehicle: other 100 % of control | dose: 4.0 micrograms/kg/injection, schedule: Q01DX009 (oral), vehicle: other 104 % of control | dose: 4.0 micrograms/kg/injection, schedule: Q01DX009 (sc), vehicle: other 100 % of control | dose: 8.0 micrograms/kg/injection, schedule: Q01DX001 (oral), vehicle: other 104 % of control | dose: 8.0 micrograms/kg/injection, schedule: Q01DX001 (sc), vehicle: other 100 % of control | dose: 8.0 micrograms/kg/injection, schedule: Q01DX009 (oral), vehicle: other 100 % of control | dose: 8.0 micrograms/kg/injection, schedule: Q01DX009 (sc), vehicle: other 100 % of control | dose: 16.0 micrograms/kg/injection, schedule: Q01DX001 (oral), vehicle: other 100 % of control | dose: 16.0 micrograms/kg/injection, schedule: Q01DX001 (sc), vehicle: other 100 % of control | dose: 16.0 micrograms/kg/injection, schedule: Q01DX009 (oral), vehicle: other 100 % of control | dose: 16.0 micrograms/kg/injection, schedule: Q01DX009 (sc), vehicle: other 100 % of control | dose: 32.0 micrograms/kg/injection, schedule: Q01DX001 (oral), vehicle: other 100 % of control | dose: 32.0 micrograms/kg/injection, schedule: Q01DX001 (sc), vehicle: other 100 % of control | dose: 32.0 micrograms/kg/injection, schedule: Q01DX009 (oral), vehicle: other 109 % of control | dose: 32.0 micrograms/kg/injection, schedule: Q01DX009 (sc), vehicle: other 104 % of control | dose: 32.0 micrograms/kg/injection, schedule: Q03HX024 (ip), vehicle: saline + alcohol 122 % of control | dose: 64.0 micrograms/kg/injection, schedule: Q01DX001 (oral), vehicle: other 100 % of control | dose: 64.0 micrograms/kg/injection, schedule: Q01DX001 (sc), vehicle: other 100 % of control | dose: 64.0 micrograms/kg/injection, schedule: Q01DX009 (oral), vehicle: other 104 % of control | dose: 64.0 micrograms/kg/injection, schedule: Q01DX009 (sc), vehicle: other 109 % of control | dose: 128.0 micrograms/kg/injection, schedule: Q01DX001 (oral), vehicle: other 104 % of control | dose: 128.0 micrograms/kg/injection, schedule: Q01DX001 (sc), vehicle: other 109 % of control | dose: 128.0 micrograms/kg/injection, schedule: Q01DX009 (oral), vehicle: other 100 % of control | dose: 256.0 micrograms/kg/injection, schedule: Q01DX001 (oral), vehicle: other 104 % of control | dose: 512.0 micrograms/kg/injection, schedule: Q01DX001 (oral), vehicle: other 100 % of control | dose: 1024.0 micrograms/kg/injection, schedule: Q08DX002 (ip), vehicle: saline 109 % of control
active: dose: 0.05 mg/kg/injection, schedule: Q01DX005 (ip), vehicle: saline 158 % of control | dose: 0.05 mg/kg/injection, schedule: Q04DX002 (ip), vehicle: saline + alcohol 169 % of control | dose: 0.08 mg/kg/injection, schedule: Q04DX002 (ip), vehicle: saline + alcohol 171 % of control | dose: 0.1 mg/kg/injection, schedule: Q01DX005 (ip), vehicle: saline 172 % of control | dose: 3.1 micrograms/kg/injection, schedule: Q01DX009 (ip), vehicle: saline + alcohol 158 % of control | dose: 4.0 micrograms/kg/injection, schedule: Q01DX009 (ip), vehicle: other 154 % of control | dose: 4.0 micrograms/kg/injection, schedule: Q01DX009 (ip), vehicle: water 157 % of control | dose: 4.0 micrograms/kg/injection, schedule: Q03HX016 (ip), vehicle: other 159 % of control | dose: 6.3 micrograms/kg/injection, schedule: Q01DX009 (ip), vehicle: saline + alcohol 160 % of control | dose: 6.3 micrograms/kg/injection, schedule: Q01DX009 (ip), vehicle: saline 159 % of control | dose: 8.0 micrograms/kg/injection, schedule: Q01DX005 (ip), vehicle: saline + alcohol 157 % of control | dose: 8.0 micrograms/kg/injection, schedule: Q01DX009 (ip), vehicle: other 154 % of control | dose: 8.0 micrograms/kg/injection, schedule: Q01DX009 (ip), vehicle: water 150 % of control | dose: 8.0 micrograms/kg/injection, schedule: Q03HX008 (ip), vehicle: other 163 % of control | dose: 8.0 micrograms/kg/injection, schedule: Q03HX016 (ip), vehicle: other 163 % of control | dose: 8.0 micrograms/kg/injection, schedule: Q03HX016 (ip), vehicle: saline + alcohol 163 % of control | dose: 8.0 micrograms/kg/injection, schedule: Q04DX003 (ip), vehicle: other 150 % of control | dose: 12.5 micrograms/kg/injection, schedule: Q01DX009 (ip), vehicle: saline + alcohol 159 % of control and 172 % of control | dose: 16.0 micrograms/kg/injection, schedule: Q01DX005 (ip), vehicle: saline + alcohol 155 % of control and 157 % of control and 160 % of control | dose: 16.0 micrograms/kg/injection, schedule: Q01DX009 (ip), vehicle: water 159 % of control | dose: 16.0 micrograms/kg/injection, schedule: Q03HX008 (ip), vehicle: saline + alcohol 163 % of control | dose: 16.0 micrograms/kg/injection, schedule: Q04DX003 (ip), vehicle: other 154 % of control | dose: 16.0 micrograms/kg/injection, schedule: Q04DX003 (ip), vehicle: water 151 % of control | dose: 25.0 micrograms/kg/injection, schedule: Q01DX009 (ip), vehicle: saline + alcohol 163 % of control | dose: 32.0 micrograms/kg/injection, schedule: Q01DX005 (ip), vehicle: saline + alcohol 163 % of control and 172 % of control | dose: 32.0 micrograms/kg/injection, schedule: Q03HX016 (ip), vehicle: saline + alcohol 163 % of control | dose: 32.0 micrograms/kg/injection, schedule: Q04DX003 (ip), vehicle: other 172 % of control | dose: 50.0 micrograms/kg/injection, schedule: Q01DX005 (ip), vehicle: saline 173 % of control | dose: 50.0 micrograms/kg/injection, schedule: Q01DX009 (ip), vehicle: saline + alcohol 159 % of control | dose: 64.0 micrograms/kg/injection, schedule: Q01DX005 (ip), vehicle: saline + alcohol 173 % of control and 175 % of control | dose: 64.0 micrograms/kg/injection, schedule: Q03HX008 (ip), vehicle: saline + alcohol 159 % of control | dose: 64.0 micrograms/kg/injection, schedule: Q04DX003 (ip), vehicle: water 161 % of control | dose: 64.0 micrograms/kg/injection, schedule: Q08DX002 (ip), vehicle: other 150 % of control | dose: 86.4 micrograms/kg/injection, schedule: Q04DX002 (ip), vehicle: saline + alcohol 160 % of control | dose: 128.0 micrograms/kg/injection, schedule: Q01DX001 (ip), vehicle: other 154 % of control | dose: 128.0 micrograms/kg/injection, schedule: Q01DX009 (sc), vehicle: saline + alcohol 154 % of control | dose: 128.0 micrograms/kg/injection, schedule: Q04DX003 (ip), vehicle: saline + alcohol 163 % of control | dose: 128.0 micrograms/kg/injection, schedule: Q04DX003 (ip), vehicle: water 150 % of control | dose: 128.0 micrograms/kg/injection, schedule: Q08DX002 (ip), vehicle: other 163 % of control | dose: 128.0 micrograms/kg/injection, schedule: Q08DX002 (ip), vehicle: saline + alcohol 163 % of control | dose: 128.0 micrograms/kg/injection, schedule: Q08DX002 (ip), vehicle: saline 154 % of control | dose: 144.0 micrograms/kg/injection, schedule: Q04DX002 (ip), vehicle: saline + alcohol 169 % of control | dose: 256.0 micrograms/kg/injection, schedule: Q01DX001 (ip), vehicle: other 150 % of control | dose: 256.0 micrograms/kg/injection, schedule: Q01DX001 (ip), vehicle: saline + alcohol 150 % of control | dose: 256.0 micrograms/kg/injection, schedule: Q01DX009 (sc), vehicle: saline + alcohol 172 % of control | dose: 256.0 micrograms/kg/injection, schedule: Q08DX002 (ip), vehicle: saline 172 % of control | dose: 512.0 micrograms/kg/injection, schedule: Q01DX001 (ip), vehicle: saline + alcohol 154 % of control
